What is called EC50 is the concentration that produces a half-maximal response.

For this experiment, the system named is HCV 1b-Con1 replicon. As to the kind of experiment: HCV 1b-Con1 replicon assay in the presence of 5% FBS. Type of experiment: cell-based. As to conditions: Hepatitis C virus. In general terms: In antiviral work, replicon cells carry a viral genome segment that copies itself.

For `COC(=O)N[C@H](C(=O)N1CCC[C@H]1c1nc2cc([C@H]3CC[C@H](c4ccc5nc([C@@H]6CCCN6C(=O)[C@@H](NC(=O)OC)C(C)C)[nH]c5c4)N3c3ccc(C4CCCCC4)c(F)c3)ccc2[nH]1)C(C)C` [Example 4.8, methyl {(2S)-1-[(2S)-2-{5-[(2R,5R)-1-(4-cyclohexyl-3-fluorophenyl)-5-{2-[(2S)-1-{(2S)-2-[(methoxycarbonyl)amino]-3-methylbutanoyl}pyrrolidin-2-yl]-1H-benzimidazol-6-yl}pyrrolidin-2-yl]-1H-benzimidazol-2-yl}pyrrolidin-1-yl]-3-methyl-1-oxobutan-2-yl}carbamate], the EC50 was under 0.1 nM. The same measure for `COC(=O)N[C@H](C(=O)N1CCC[C@H]1c1nc2cc([C@H]3CC[C@H](c4ccc5nc([C@@H]6CCCN6C(=O)[C@@H](NC(=O)OC)C(C)C)[nH]c5c4)N3c3ccc(F)c(F)c3)ccc2[nH]1)C(C)C` [Example 4.9, methyl {(2S)-1-[(2S)-2-{5-[(2R,5R)-1-(3,4-difluorophenyl)-5-{2-[(2S)-1-{(2S)-2-[(methoxycarbonyl)amino]-3-methylbutanoyl}pyrrolidin-2-yl]-1H-benzimidazol-6-yl}pyrrolidin-2-yl]-1H-benzimidazol-2-yl}pyrrolidin-1-yl]-3-methyl-1-oxobutan-2-yl}carbamate]: under 0.1 nM; for `CCOc1ccc(N2[C@@H](c3ccc4nc([C@@H]5CCCN5C(=O)[C@@H](NC(=O)OC)C(C)C)[nH]c4c3)CC[C@@H]2c2ccc3nc([C@@H]4CCCN4C(=O)[C@@H](NC(=O)OC)C(C)C)[nH]c3c2)cc1` [Example 4.10, methyl {(2S)-1-[(2S)-2-{6-[(2R,5R)-1-(4-ethoxyphenyl)-5-{2-[(2S)-1-{(2S)-2-[(methoxycarbonyl)amino]-3-methylbutanoyl}pyrrolidin-2-yl]-1H-benzimidazol-6-yl}pyrrolidin-2-yl]-1H-benzimidazol-2-yl}pyrrolidin-1-yl]-3-methyl-1-oxobutan-2-yl}carbamate]: under 0.1 nM; for `COC(=O)N[C@H](C(=O)N1CCC[C@H]1c1nc2ccc([C@H]3CC[C@H](c4ccc5nc([C@@H]6CCCN6C(=O)[C@@H](NC(=O)OC)C(C)C)[nH]c5c4)N3c3ccc(OCC(F)F)cc3)cc2[nH]1)C(C)C` [Example 4.11, methyl {(2S)-1-[(2S)-2-{6-[(2R,5R)-1-[4-(2,2-difluoroethoxy)phenyl]-5-{2-[(2S)-1-{(2S)-2-[(methoxycarbonyl)amino]-3-methylbutanoyl}pyrrolidin-2-yl]-1H-benzimidazol-6-yl}pyrrolidin-2-yl]-1H-benzimidazol-2-yl}pyrrolidin-1-yl]-3-methyl-1-oxobutan-2-yl}carbamate]: under 0.1 nM.

Turning to `COC(=O)N[C@H](C(=O)N1CCC[C@H]1c1nc2ccc([C@H]3CC[C@H](c4ccc5nc([C@@H]6CCCN6C(=O)[C@@H](NC(=O)OC)C(C)C)[nH]c5c4)N3c3ccc(S(F)(F)(F)(F)F)cc3)cc2[nH]1)C(C)C` [Example 4.13, methyl {(2S)-1-[(2S)-2-(6-{(2R,5R)-5-{2-[(2S)-1-{(2S)-2-[(methoxycarbonyl)amino]-3-methylbutanoyl}pyrrolidin-2-yl]-1H-benzimidazol-6-yl}-1-[4-(pentafluoro-lambda˜6˜-sulfanyl)phenyl]pyrrolidin-2-yl}-1H-benzimidazol-2-yl)pyrrolidin-1-yl]-3-methyl-1-oxobutan-2-yl}carbamate], the EC50 is under 0.1 nM. `COC(=O)N[C@H](C(=O)N1CCC[C@H]1c1nc2cc([C@@H]3CC[C@@H](c4ccc5[nH]c([C@@H]6CCCN6C(=O)[C@@H](NC(=O)OC)[C@@H](C)OC)nc5c4)N3c3ccc(C4CC4)cc3)ccc2[nH]1)[C@@H](C)OC` [Example 4.14, methyl {(2S,3R)-1-[(2S)-2-{5-[(2S,55)-1-(4-cyclopropylphenyl)-5-(2-{(2S)-1-[N-(methoxycarbonyl)-O-methyl-L-threonyl]pyrrolidin-2-yl}-1H-benzimidazol-5-yl)pyrrolidin-2-yl]-1H-benzimidazol-2-yl}pyrrolidin-1-yl]-3-methoxy-1-oxobutan-2-yl}carbamate]: the EC50 was under 0.1 nM. On to `COC(=O)N[C@H](C(=O)N1CCC[C@H]1c1nc2ccc([C@H]3CC[C@H](c4ccc5nc([C@@H]6CCCN6C(=O)[C@@H](NC(=O)OC)C(C)C)[nH]c5c4)N3c3cc(F)c(C4CC4)c(F)c3)cc2[nH]1)C(C)C` [Example 4.15, methyl {(2S)-1-[(2S)-2-{6-[(2R,5R)-1-(4-cyclopropyl-3,5-difluorophenyl)-5-{2-[(2S)-1-{(2S)-2-[(methoxycarbonyl)amino]-3-methylbutanoyl}pyrrolidin-2-yl]-1H-benzimidazol-6-yl}pyrrolidin-2-yl]-1H-benzimidazol-2-yl}pyrrolidin-1-yl]-3-methyl-1-oxobutan-2-yl}carbamate], for which the EC50 is under 0.1 nM. On to `COC(=O)N[C@H](C(=O)N1CCC[C@H]1c1nc2ccc([C@H]3CC[C@H](c4ccc5nc([C@@H]6CCCN6C(=O)[C@@H](NC(=O)OC)C6CC6)[nH]c5c4)N3c3ccc(C(C)(C)C)cc3)cc2[nH]1)C1CC1` [Example 4.16, dimethyl ([(2R,5R)-1-(4-tert-butylphenyl)pyrrolidine-2,5-diyl]bis{1H-benzimidazole-6,2-diyl(2S)pyrrolidine-2,1-diyl [(1S)-1-cyclopropyl-2-oxoethane-2,1-diyl]}) biscarbamate], for which the EC50 is under 0.1 nM. Consider `COC(=O)N[C@H](C(=O)N1CCC[C@H]1c1nc2cc([C@H]3CC[C@H](c4ccc5[nH]c([C@@H]6CCCN6C(=O)[C@@H](NC(=O)OC)C(C)C)nc5c4)N3c3cc(F)c(N4CCC(C(C)=O)(c5ccccc5)CC4)c(F)c3)ccc2[nH]1)C(C)C` [Example 4.17, methyl {(2S)-1-[(2S)-2-{5-[(2R,5R)-1-[4-(4-acetyl-4-phenylpiperidin-1-yl)-3,5-difluorophenyl]-5-{2-[(2S)-1-{(2S)-2-[(methoxycarbonyl)amino]-3-methylbutanoyl}pyrrolidin-2-yl]-1H-benzimidazol-5-yl}pyrrolidin-2-yl]-1H-benzimidazol-2-yl}pyrrolidin-1-yl]-3-methyl-1-oxobutan-2-yl}carbamate], for which the EC50 was under 0.1 nM. As for `COC(=O)N[C@H](C(=O)N1C(c2nc3cc([C@H]4CC[C@H](c5ccc6[nH]c([C@@H]7C[C@@H]8CCC[C@@H]8N7C(=O)[C@@H](NC(=O)OC)C(C)C)nc6c5)N4c4cc(F)c(N5CCCCC5)c(F)c4)ccc3[nH]2)C[C@@H]2CCC[C@@H]21)C(C)C` (stereo partly drawn) [Example 4.18, methyl {(2S)-1-[(2S,3aS,6aS)-2-{5-[(2R,5R)-1-[3,5-difluoro-4-(piperidin-1-yl)phenyl]-5-{2-[(3aS,6aS)-1-{(2S)-2-[(methoxycarbonyl)amino]-3-methylbutanoyl}octahydrocyclopenta[b]pyrrol-2-yl]-1H-benzimidazol-5-yl}pyrrolidin-2-yl]-1H-benzimidazol-2-yl}hexahydrocyclopenta[b]pyrrol-1(2H)-yl]-3-methyl-1-oxobutan-2-yl}carbamate], the figure is under 0.1 nM; as for `COC(=O)N[C@H](C(=O)N1CCCC1c1nc2cc([C@H]3CC[C@H](c4ccc5[nH]c([C@@H]6CCCN6)nc5c4)N3c3ccc(C(C)(C)C)cc3)ccc2[nH]1)C(C)C` (stereo partly drawn) [Example 4.20, methyl [(2S)-1-(2-{5-[(2R,5R)-1-(4-tert-butylphenyl)-5-{2-[(2S)-pyrrolidin-2-yl]-1H-benzimidazol-5-yl}pyrrolidin-2-yl]-1H-benzimidazol-2-yl}pyrrolidin-1-yl)-3-methyl-1-oxobutan-2-yl]carbamate], under 0.1 nM; as for `COC(=O)N[C@H](C(=O)N1CCC[C@H]1c1nc2cc([C@H]3CC[C@H](c4ccc5[nH]c([C@@H]6CCCN6C(=O)[C@@H](NC(=O)OC)C(C)C)nc5c4)N3c3cc(F)c(N4CC5CCC4CC5)c(F)c3)ccc2[nH]1)C(C)C` [Example 4.21, methyl {(2S)-1-[(2S)-2-{5-[(2R,5R)-1-[4-(2-azabicyclo[2.2.2]oct-2-yl)-3,5-difluorophenyl]-5-{2-[(2S)-1-{(2S)-2-[(methoxycarbonyl)amino]-3-methylbutanoyl}pyrrolidin-2-yl]-1H-benzimidazol-5-yl}pyrrolidin-2-yl]-1H-benzimidazol-2-yl}pyrrolidin-1-yl]-3-methyl-1-oxobutan-2-yl}carbamate], under 0.1 nM. Turning to `COC(=O)N[C@H](C(=O)N1CCC[C@H]1c1nc2cc([C@H]3CC[C@H](c4ccc5[nH]c([C@@H]6CCCN6C(=O)[C@@H](NC(=O)OC)C(C)C)nc5c4)N3c3cc(F)c(N4CCC(C(C)C)CC4)c(F)c3)ccc2[nH]1)C(C)C` [Example 4.22, methyl {(2S)-1-[(2S)-2-{5-[(2R,5R)-1-{3,5-difluoro-4-[4-(propan-2-yl)piperidin-1-yl]phenyl}-5-{2-[(2S)-1-{(2S)-2-[(methoxycarbonyl)amino]-3-methylbutanoyl}pyrrolidin-2-yl]-1H-benzimidazol-5-yl}pyrrolidin-2-yl]-1H-benzimidazol-2-yl}pyrrolidin-1-yl]-3-methyl-1-oxobutan-2-yl}carbamate], the EC50 was under 0.1 nM. As for `COC(=O)N[C@H](C(=O)N1CCC[C@H]1c1nc2cc([C@H]3CC[C@H](c4ccc5[nH]c([C@@H]6CCCN6C(=O)[C@@H](NC(=O)OC)C6CCOCC6)nc5c4)N3c3cc(F)c(N4CCC(C)(C)CC4)c(F)c3)ccc2[nH]1)C1CCOCC1` [Example 4.23, dimethyl ({(2R,5R)-1-[4-(4,4-dimethylpiperidin-1-yl)-3,5-difluorophenyl]pyrrolidine-2,5-diyl}bis{1H-benzimidazole-5,2-diyl(2S)pyrrolidine-2,1-diyl[(1S)-2-oxo-1-(tetrahydro-2H-pyran-4-yl)ethane-2,1-diyl]})biscarbamate], the figure is under 0.1 nM. `COC(=O)N[C@H](C(=O)N1CCC[C@H]1c1nc2cc([C@H]3CC[C@H](c4ccc5[nH]c([C@@H]6CCCN6C(=O)[C@@H](NC(=O)OC)C(C)C)nc5c4)N3c3cc(F)c(N4CC(C)(C)C4)c(F)c3)ccc2[nH]1)C(C)C` [Example 4.24, methyl {(2S)-1-[(2S)-2-{5-[(R2R,5R)-1-[4-(3,3-dimethylazetidin-1-yl)-3,5-difluorophenyl]-5-{2-[(2S)-1-{(2S)-2-[(methoxycarbonyl)amino]-3-methylbutanoyl}pyrrolidin-2-yl]-1H-benzimidazol-5-yl}pyrrolidin-2-yl]-1H-benzimidazol-2-yl}pyrrolidin-1-yl]-3-methyl-1-oxobutan-2-yl}carbamate]: the EC50 is under 0.1 nM.

Source of the values: patent US20120220562A1, “Anti-Viral Compounds” (ABBOTT LABAORATORIES, priority 2011, published 2012).
